# Measurements reported in patent US20110008396A1, “COMPOSITIONS AND METHODS FOR TREATING CARDIOVASCULAR CONDITIONS” (Rutgers, the Sate University of New Jersey, priority 2007, published 2011).
# Entries after “also recorded” stand apart in the source; their conditions may differ.
# Experiments:
# THP-1 macrophages [1] = assay: GW internalization study (multiphoton imaging); type: cell-based, human; details: 5 hr, polymer 10^-6 M
# Description: In brief, differentiated THP-1 macrophages were incubated with NAPs at 10^−6 M and/or 10^−7M GW3965 for 5 hr in serum-free RPMI at 37° C. Cells were washed and fixed and multiphoton imaging to detect internalized GW3965 was performed on a Leica TCS SP2 system (Leica Microsystems, Inc., Exton, Pa.). The cells were illuminated using a titanium: sapphire femtosecond laser with a tunable wavelength from 780 nm to 920 nm (Mai Tai, repetition rate 80 Mhz, 100 fs pulse duration, 800 mW) and 470-500 nm emission.
# THP-1 macrophages [2] = assay: Efflux of high density lipoproteins (HDL secretion); type: cell-based, human; details: macrophages pre-loaded with hoxLDL 30 μg/ml, ApoA1 present
# Description: In brief, differentiated THP-1 macrophages were pre-incubated with 30 μg/ml highly oxidized LDL at 37° C. in serum-free RPMI 1640 for 24 hr. Next, NAPs at 10^−6 M and 10 ug/mL ApoA1 with or without 10^−7 M GW3965 were added to each well and incubated for a further 24 hours. The cell medium was then removed for analysis using the Biovision HDL and LDL/VLDL Cholesterol Quantification kit (BioVision, CA). The remaining macrophages were lysed using 0.03 g sodium dodecyl sulfate (SDS) in 30 ml sodium hydroxide (NaOH, 0.1N). The protein content was measured with the Modified Lowry protein assay (Pierce, Ill.) and the HDL secretion results were normalized per mg cell protein.
# THP-1 macrophages [3] = assay: hoxLDL efflux from macrophage cells; type: cell-based, human; details: GW3965 10^-8 M, NAPs 10^-6 M
# Description: THP-1, human monocytes, are grown in suspension, with RPMI medium containing 0.4 mM Ca^2+ and Mg^2+, (ATCC) and supplemented with 10% FBS, in an incubator with 5% CO2 at 37 C and split every four days through centrifugation. The cells are seeded at a concentration of 100,000 cells/cm^2 to continue monocyte cultures and to differentiate the cells into macrophage cells. Once the monocytes have been differentiated into macrophage cells they will become adherent and can be tested. The macrophage cells can not be propagated and will be used within a week of differentiation.
# Highly oxidized LDL will be oxidized within five days of each experiment. BODIPY-labeled and unlabeled human plasma derived LDL (Molecular Probes, OR) is oxidized by 18 hours of incubation with 10 uM CuSO4 (Sigma) at 37 C with 5% CO2. (Oorni 1997; Chang 2001) The oxidation will be stopped with 0.01% w/v EDTA after the 18 hours.
# The efflux of hoxLDL by macrophage cells was assayed by incubating fluorescently labeled hoxLDL (10 ug/mL) with cells for 2 hours at 37 C and 5% CO2. […] The images were analyzed with Image Pro Plus 5.1 software (Media Cybernetics, San Diego, Calif.) and normalized with cell number and compared to the control sample wherein no NAPs or ligand was administered.
# ABCA1 = details: GW3965 at concentrations as high as 1*10^-6 M; cited from earlier work
# LXRalpha = details: GW3965 at concentrations as high as 1*10^-6 M; cited from earlier work
structure (smiles),measurement,setting,value
O=C(O)Cc1cccc(OCCCN(Cc2cccc(C(F)(F)F)c2Cl)CC(c2ccccc2)c2ccccc2)c1 [GW3965],"internalization of GW3965 by macrophages (multiphoton images, in words)",THP-1 macrophages [1],minimal uptake; also recorded: no drug uptake
same,HDL secreted versus 100 percent baseline (in words),THP-1 macrophages [2],not significantly different
same,hoxLDL efflux (in words),THP-1 macrophages [3]; 5 hours,not effective
same,less hoxLDL within the cells / cholesterol released (efflux) versus nothing administered,"THP-1 macrophages [3]; hoxLDL 10 ug/mL 2 h, then test condition 5 h",4%
same,ABCA1 increase in HepG2 cells,ABCA1,≤ 6 fold
same,LXRalpha increase in HepG2 cells,LXRalpha,≤ 3 fold
